Experimental findings from patent US8748441B2, “Therapeutic uses of quinazolinedione derivatives” (SANOFI, priority 2009, dated 2014) are described below.

A word on the IC50: it is the concentration that gives 50% inhibition.

Test [1] concerns PDE8. Description: PDE8 enzymatic assay equivalent to that described for PDE7. The test is classed as biochemical.
For test [2], the system named is MG7 microglial cells. Briefly: In vitro model of microglial activation: interleukin-1β secretion by LPS-activated MG7 cells (ELISA). In kind it is cell-based, mouse. On the procedure: The compounds according to the invention have been evaluated in an in vitro model of microglial activation. After activation by lipopolysaccharide (LPS), the microglial cells secrete large amounts of interleukin-1, which amounts can be quantified by specific assaying in the cell supernatants.
Cultures of microglial cells of the MG7 line derived from the mouse cortex are incubated in the presence of variable concentrations of compounds according to the invention. After incubating at 37° C. for 1 hour, the cells are brought together with LPS, which induces the production of interleukin-1. After treating for 24 h, the amounts of interleukin-1β are measured in the culture supernatants by ELISA assay.
(ELISA stands for enzyme-linked immunosorbent assay.)

`COc1ccc(Cn2c(=O)c3cc(OC(CF)CF)ccc3n(C3CCN(C=O)CC3)c2=O)cc1OC` [No. 11, 4-[3-(3,4-dimethoxybenzyl)-6-[2-fluoro-1-(fluoromethyl)ethoxy]-2,4-dioxo-3,4-dihydroquinazolin-1(2H)-yl]piperidine-1-carbaldehyde]: the IC50 in test [1] was determined as 140 nM. For `N#Cc1cc(Cn2c(=O)c3cc(OC(CF)CF)ccc3n(C3CCN(C=O)CC3)c2=O)ccc1-c1ccccc1` [No. 294, 4-({6-[2-fluoro-1-(fluoromethyl)ethoxy]-1-(1-formylpiperidin-4-yl)-2,4-dioxo-1,4-dihydroquinazolin-3(2H)-yl}methyl)biphenyl-2-carbonitrile], in test [1], the IC50 was 15 nM. `O=CN1CCC(n2c(=O)n(Cc3ccc(-c4cccs4)cc3)c(=O)c3cc(OC(CF)CF)c(F)cc32)CC1` [No. 297, 4-{7-fluoro-6-[2-fluoro-1-(fluoromethyl)ethoxy]-2,4-dioxo-3-(4-(thiophen-2-yl)benzyl)-3,4-dihydroquinazolin-1(2H)-yl}piperidine-1-carbaldehyde]: the inhibition at 3 µM in test [2] (Mus musculus, at 3 μM, MG7 microglial cells activated by LPS, 24 h, read-out: maximum inhibitory effect on secretion of interleukin-1β) is 47%. Also, in test [2] (variable concentrations, 1 h preincubation, LPS 24 h), the “secretion of interleukin-1β by MG7 microglial cells activated by LPS” value was “significantly decreases, in a concentration-dependent fashion”.
